Values after ≈ are worked out from the molar mass of the structure shown.
Conditions: buffer; pH 7.4; 200.0 µM

Structure (SMILES) | solubility kinetic
Cn1c(N)c(C(=O)COC(=O)COc2cc(Cl)c(Cl)cc2Cl)c(=O)n(C)c1=O | 4 µg/mL (≈ 8.88 µM)
CN(C(=O)c1ccncc1)C1CCCCC1 | > 32.7 µg/mL
COc1ccccc1C(=O)COC(=O)CN1C(=O)C2CC=CCC2C1=O (stereo not given) | 52 µg/mL (≈ 146 µM)
Cc1cc(N2CCOCC2)nc2ccc(NC(=S)NC(C)C)cc12 | 4.6 µg/mL (≈ 13.4 µM)
Cc1nc(SCc2ccc(O)c([N+](=O)[O-])c2)c([N+](=O)[O-])[nH]1 | > 46.5 µg/mL
COc1cc2ncnc(Nc3ccc4c(c3)OCO4)c2cc1OC | 10.1 µg/mL (≈ 31 µM)
CCOC(=O)C1CCN(Cc2cc(=O)oc3cc(C)ccc23)CC1 | 43.1 µg/mL (≈ 131 µM)
Nc1nc2ccc(Cc3ccncc3)cc2s1 | > 36.2 µg/mL
Cc1ccc(NC(=O)C2COc3ccccc3O2)cc1 (stereo not given) | 13.3 µg/mL (≈ 49.4 µM)
CC1(C)C(=O)Nc2ccccc2N1C(=O)COc1ccccc1C#N | 21.5 µg/mL (≈ 64.1 µM)
CC(C)(C)C1CCC(=NNC(=O)C(=O)NCc2cccnc2)CC1 (stereo not given) | > 49.6 µg/mL
CC(NC(=O)/C=C/c1ccccc1[N+](=O)[O-])C1CC2CCC1C2 (stereo not given) | 1.2 µg/mL (≈ 3.82 µM)
O=C(Nc1ccc(CN2CCOCC2)cc1)c1ccc(F)cc1 | > 47.2 µg/mL
N#Cc1nc(-c2ccccc2F)oc1N1CCCCC1 | 2.3 µg/mL (≈ 8.48 µM)
CC(=O)N(Cc1ccccc1)c1c(N)nc(N)[nH]c1=O | > 41 µg/mL
Cn1c(-c2ccc(Cl)nc2)nc2cc(Cl)ccc21 | 6.6 µg/mL (≈ 23.7 µM)
Cc1nc2ccc(NC(=O)[C@H](C)N3C(=O)C4CC=CCC4C3=O)cc2s1 (stereo not given in full) | > 55.4 µg/mL
COC(=O)c1ccc(S(=O)(=O)NCc2ccc(OC)cc2)n1C | > 50.8 µg/mL
CC(SCc1ccccc1)C(=O)Nc1ccccc1 (stereo not given) | 32.1 µg/mL (≈ 118 µM)
CCN(Cc1nc(-c2ccccc2)no1)C(=O)c1ccc2c(c1)OCO2 | 36.5 µg/mL (≈ 104 µM)

Structure (SMILES) | solubility kinetic
O=C(NCCNC(=O)c1cc(Cl)ccc1Cl)c1ccccn1 | > 50.7 µg/mL
CN(C)c1cccc(C(=O)NCc2ccccc2)c1 | > 38.1 µg/mL
Fc1ccccc1OCCn1c(=S)[nH]c2ccccc21 | 6 µg/mL (≈ 20.8 µM)
CCc1sc(C(=O)N2CCN(c3ccc(F)cc3)CC2)cc1C | 10.7 µg/mL (≈ 32.2 µM)
CCOC(=O)c1cc(NC(=O)c2cccnc2)ccn1 | 37.1 µg/mL (≈ 137 µM)
O=c1[nH]c(O)c(/C=C2\C=Nc3ccc(Br)cc32)[nH]1 | 3.3 µg/mL (≈ 10.8 µM)
COC(=O)c1nn(-c2cccc(Cl)c2)cc(OC)c1=O | > 44.2 µg/mL
Cn1c(SCC(=O)Nc2sccc2C#N)nnc1C1CC1 | > 47.9 µg/mL
O=S(=O)(Nc1ccccc1O)c1ccc(-c2ccccc2)cc1 | 12.3 µg/mL (≈ 37.8 µM)
O=C(Nc1cccc(Cl)c1)c1ccc2ncsc2c1 | 21.2 µg/mL (≈ 73.4 µM)
Cc1ccsc1C(=O)Nc1nc2ccccc2[nH]1 | 2 µg/mL (≈ 7.77 µM)
COc1ccc(OC)c(NC(=O)CC2(CC(=O)O)CCCC2)c1 | > 48.2 µg/mL
Cc1cc(N2CC(C)OC(C)C2)n2cc(-c3ccccc3)nc2n1 (stereo not given) | 15.4 µg/mL (≈ 47.8 µM)
Cc1ccc(NC(=O)CO/N=C(\N)c2ccccc2)cc1C | 5 µg/mL (≈ 16.8 µM)
O=C(O)Cc1csc(-c2cccc(F)c2)n1 | > 35.6 µg/mL
Cc1ccc(NC(=O)c2ccc3c(c2)OCO3)cc1Cl | 0.9 µg/mL (≈ 3.11 µM)
CCCN1CCC(NC(=O)Cc2ccccc2OC)CC1 | 43.5 µg/mL (≈ 150 µM)
O=C(Nc1ccccc1O)/C(=C\c1ccccc1)NC(=O)c1ccccc1 | 14.9 µg/mL (≈ 41.6 µM)
CC(C)=CCN1CCN(Cc2cc3ccccc3[nH]2)CC1CCO (stereo not given) | 45.8 µg/mL (≈ 140 µM)
COc1ccc(NC(=O)c2c(F)cccc2Cl)cc1S(=O)(=O)N1CCOCC1 | > 64.3 µg/mL

Structure (SMILES) | solubility kinetic
O=C(CC1CCCCC1)NCc1ccc(Cl)cc1 | 2.4 µg/mL (≈ 9.03 µM)
CC(C)c1ccccc1OCC(=O)N1CCCN(C)CC1 | > 43.6 µg/mL
COC(=O)CCC(=O)NC(=S)Nc1ccc(S(=O)(=O)Nc2cc(C)on2)cc1 | 57.4 µg/mL (≈ 135 µM)
CCOc1ccc(N2CC(C(=O)Nc3cc(S(=O)(=O)N4CCCCC4)ccc3C)CC2=O)cc1 (stereo not given) | 1.3 µg/mL (≈ 2.68 µM)
COC(=O)c1cc(=O)c2cccc(OC)c2[nH]1 | > 35 µg/mL
CC(C)(C)c1ccc(C(=O)NC(=S)N2CCOCC2)cc1 | > 46 µg/mL
CC(=O)N1C(C(=O)O)Cc2c([nH]c3ccccc23)C1(C)C (stereo not given) | > 42.9 µg/mL
O=C(COC(=O)c1ccccc1)NCCC1=CCCCC1 | 24.1 µg/mL (≈ 83.9 µM)
O=C(COC(=O)c1cccc(OC(F)F)c1)NC1CCCC1 | 28.2 µg/mL (≈ 90 µM)
Cc1ccc(NC(=O)N2CCC(C(=O)c3ccc(F)cc3)CC2)cc1 | 0.6 µg/mL (≈ 1.76 µM)
CC1=C(C(=O)OCc2ccccc2)C(c2ccccc2)NC(=O)N1 (stereo not given) | 2.8 µg/mL (≈ 8.69 µM)
CN(C)C=NC(=O)c1[nH]c2ccc(Cl)cc2c1-c1ccccc1 | 15.2 µg/mL (≈ 46.7 µM)
O=C1CC2(CCCC2)CC(=O)N1c1ccccc1 | > 36.5 µg/mL
CC(CN1CCCC1)OC(=O)c1ccc(Cl)cc1.Cl (stereo not given) | > 45.6 µg/mL
CCC(C)c1ccc(C(C)NC(=S)NCc2ccc(F)cc2)cc1 (stereo not given) | < 0.4 µg/mL
CC(Cc1ccccc1)NC(=O)c1cc2ccccc2o1 (stereo not given) | 30.5 µg/mL (≈ 109 µM)
CCOc1ccccc1NC(=S)NC(=O)CCc1ccccc1 | < 0.4 µg/mL
N#Cc1cnc(NOCc2ccc(Cl)cc2)nc1 | 7.4 µg/mL (≈ 28.4 µM)
COc1cc(Nc2ncnc(N)n2)cc(OC)c1 | > 37.1 µg/mL
O=C(NCc1ccc(Cl)cc1)C1CCN(C(=O)c2ccco2)CC1 | > 52 µg/mL

From PubChem BioAssay AID1996
